Test results from patent US11286268B1, “EIF4E-inhibiting compounds and methods” (EFFECTOR THERAPEUTICS, INC., priority 2019, dated 2022).
Where two headings read alike, the source gives them in different places.

Biological target: recombinant eIF4E (Homo sapiens (Human), UniProt P06730)
Assay: Fluorescence polarization competition assay for eIF4E binding potency
Method in brief: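 IC50 derived from fluorescence polarization over an 8-point, 3-fold compound series after 30 min room-temperature equilibration in the dark. Mix: eIF4E 75 nM pre-bound 5 min to 20 nM EDA-m^7GDP-ATTO-550; buffer 20 mM Tris pH 7.5, 100 mM NaCl, 1 mM DTT, 0.02% Tween-20; DMSO 1%.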

[1] = fluorescence polarization competition, 75 nM recombinant eIF4E, 20 nM EDA-m7GDP-ATTO-550, IC50 class, read-out: elF4E FP
[2] = inhibition of eIF4E/EDA-m7GDP-ATTO-550 binding by 50%, Table 4B calculated values, read-out: IC50

Sequence of recombinant eIF4E (P06730 whole entry): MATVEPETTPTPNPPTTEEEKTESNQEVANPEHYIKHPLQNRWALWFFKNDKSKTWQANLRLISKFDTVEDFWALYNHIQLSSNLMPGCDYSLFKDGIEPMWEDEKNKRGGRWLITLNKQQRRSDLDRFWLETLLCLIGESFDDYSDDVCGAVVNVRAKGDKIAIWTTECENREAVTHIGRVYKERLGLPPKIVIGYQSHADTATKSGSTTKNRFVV

SMILES | IC50 [1] [µM] | IC50 [2] [µM]
Cc1nc2cc(F)c(F)c(C#N)c2c(=O)n1CCOc1ccc(Cl)cc1-c1ccnc2c(C(=O)NS(C)(=O)=O)csc12 [compound 307] | 0.05 to 1 | 0.0594
CONC(=O)c1csc2c(-c3cc(Cl)ccc3OCCn3c(C)nc4cc(F)c(F)c(C#N)c4c3=O)ccnc12 [compound 308] | 0.05 to 1 | 0.811
COc1c(C)n(CCOc2ccc(Cl)cc2-c2ccnc3c(C(=O)O)csc23)c(=O)c2c(C#N)cc(C(F)(F)F)cc12 [compound 309] | 0.05 to 1 | 0.0525
Cc1c(O)c2cc(C(F)(F)F)cc(C#N)c2c(=O)n1CCOc1ccc(Cl)cc1-c1ccnc2c(C(=O)O)csc12 [compound 310] | 0.05 to 1 | 0.0977
Cc1nc2cc(F)c(CN(C)C)c(C#N)c2c(=O)n1CCOc1ccc(Cl)cc1-c1ccnc2c(C(=O)O)csc12 [compound 311] | 0.05 to 1 | 0.0555
Cc1nc2c(C#N)ccc(C#N)c2c(=O)n1CCOc1ccc(Cl)cc1-c1ccnc2c(C(=O)O)csc12 [compound 312] | 0.05 to 1 | 0.0756
Cc1nc2c(OC(F)(F)F)ccc(C#N)c2c(=O)n1CCOc1ccc(Cl)cc1-c1ccnc2c(C(=O)O)csc12 [compound 313] | < 0.05 | 0.0345
Cc1nc2cc(C(F)(F)F)cc(C#N)c2c(=O)n1CCOc1ccc(Cl)cc1-c1cnnc2c(C(=O)O)csc12 [compound 314] | < 0.05 | 0.0428
Cc1nc2cc(C(F)(F)F)cc(C#N)c2c(=O)n1CCOc1ccc(Cl)cc1-c1nsc2c(C(=O)O)csc12 [compound 315] | 0.05 to 1 | 0.582
Cc1nc2ccc(C(N)=O)c(C#N)c2c(=O)n1CCOc1ccc(Cl)cc1-c1ccnc2c(C(=O)O)csc12 [compound 316] | < 0.05 | 0.0204
Cc1nc2cc(C(N)=O)cc(C#N)c2c(=O)n1CCOc1ccc(Cl)cc1-c1ccnc2c(C(=O)O)csc12 [compound 317] | < 0.05 | 0.0171
Cc1c(S(C)(=O)=O)c2cc(C(F)(F)F)cc(C#N)c2c(=O)n1CCOc1ccc(Cl)cc1-c1ccnc2c(C(=O)O)csc12 [compound 318] | < 0.05 | 0.00292
Cc1nc2cc(C(F)(F)F)cc(C#N)c2c(=O)n1CCOc1ccc(Cl)cc1-c1cncc2c(C(=O)O)csc12 [compound 319] | 0.05 to 1 | 0.0535
Cc1nc2cc(C(F)(F)F)cc(C#N)c2c(=O)n1CCOc1ccc(Cl)cc1-c1ccnc2c(C(=O)O)cn(C)c12 [compound 320] | < 0.05 | 0.0435
Cc1nc2cc(C(F)(F)F)c(CC3CN(CCF)C3)c(C#N)c2c(=O)n1CCOc1ccc(Cl)cc1-c1ccnc2c(C(=O)O)csc12 [compound 321] | < 0.05 | 0.00489
Cc1nc2cc(C(F)(F)F)cc(C#N)c2c(=O)n1CCOc1ccc(Cl)cc1-c1cccc2c(C(=O)O)c[nH]c12 [compound 322] | 0.05 to 1 | 0.116
Cc1nc2cc(C(F)(F)F)cc(C#N)c2c(=O)n1CCOc1ccc(Cl)cc1-c1ccnc2c(C(=O)O)c[nH]c12 [compound 323] | 0.05 to 1 | 0.0826
Cc1nc2cc(C(F)(F)F)cc(C#N)c2c(=O)n1CCOc1ccc(Cl)cc1-c1coc2c(C(=O)O)ccnc12 [compound 324] | 0.05 to 1 | 0.0933
Cc1nc2cc(C(F)(F)F)cc(C#N)c2c(=O)n1CCOc1ccc(Cl)cc1-c1ccnc2c(C(=O)O)coc12 [compound 325] | 0.05 to 1 | 0.052
Cc1nc2cc(C(F)(F)F)cc(C#N)c2c(=O)n1CCOc1ccc(Cl)cc1N1CCC(C(=O)O)CC1 [compound 326] | > 1 | 1.44
Cc1nc2cc(C(F)(F)F)cc(C#N)c2c(=O)n1CCOc1ccc(Cl)cc1-c1cccc2c1S(=O)(=O)C=C2C(=O)O [compound 327] | < 0.05 | 0.0437
Cc1nc2cc(C(F)(F)F)cc(C#N)c2c(=O)n1CCOc1ccc(Cl)cc1N1CCC(CC(=O)O)CC1 [compound 328] | > 1 | 1.32
COc1cc(-c2cc(Cl)ccc2OCCn2c(C)nc3cc(C(F)(F)F)cc(C#N)c3c2=O)c2scc(C(=O)O)c2n1 [compound 329] | < 0.05 | 0.0464
CCc1cc(-c2cc(Cl)ccc2OCCn2c(C)nc3cc(C(F)(F)F)cc(C#N)c3c2=O)c2scc(C(=O)O)c2n1 [compound 330] | < 0.05 | 0.0477
Cc1nc2cc(C(F)(F)F)cc(C#N)c2c(=O)n1CCOc1ccc(Cl)cc1-c1cc(=O)n(C)c2c(C(=O)O)csc12 [compound 332] | < 0.05 | 0.0377
Cc1cc(-c2cc(Cl)ccc2OCCn2c(C)nc3cc(C(F)(F)F)cc(C#N)c3c2=O)c2scc(C(=O)O)c2c1F [compound 333] | – | 0.0249
Cc1cc(-c2cc(Cl)ccc2OCCn2c(C)nc3cc4c(c(C#N)c3c2=O)CCNC4)c2scc(C(=O)O)c2n1 [compound 334] | < 0.05 | 0.0104

SMILES | IC50 [1] [µM] | IC50 [2] [µM]
Cc1cc(-c2cc(Cl)ccc2OCCn2c(C)nc3cc4c(c(C#N)c3c2=O)CCN(C)C4)c2scc(C(=O)O)c2n1 [compound 335] | 0.05 to 1 | –
Cc1cc(-c2cc(Cl)ccc2OCCn2c(C)nc3cc4c(c(C#N)c3c2=O)CN(C)CC4)c2scc(C(=O)O)c2n1 [compound 336] | < 0.05 | 0.0279
Cc1cc(-c2cc(Cl)ccc2OCCn2c(C)nc3cc(C(F)(F)F)cnc3c2=O)c2scc(C(=O)O)c2n1 [compound 337] | < 0.05 | 0.0257
CCc1ncc(C#N)c2c(=O)n(CCOc3ccc(Cl)cc3-c3cc(C)nc4c(C(=O)O)csc34)c(C)nc12 [compound 338] | < 0.05 | 0.0453
Cc1cc(-c2cc(Cl)ccc2OCCn2c(C)nc3c(C4CC4)ncc(C#N)c3c2=O)c2scc(C(=O)O)c2n1 [compound 339] | < 0.05 | 0.0268
Cc1cc(-c2cc(Cl)ccc2OCCn2c(C)nc3c(C(F)(F)F)ncc(C#N)c3c2=O)c2scc(C(=O)O)c2n1 [compound 340] | < 0.05 | 0.00501
Cc1cc(-c2c(C(F)(F)F)cc3nc(C)n(CCOc4ccc(Cl)cc4-c4cc(C)nc5c(C(=O)O)csc45)c(=O)c3c2C#N)ccn1 [compound 341] | < 0.05 | 0.045
Cc1cc(-c2cc(Cl)ccc2OCCn2c(C)nc3cc(C(F)(F)F)c(-c4cncc(F)c4)c(C#N)c3c2=O)c2scc(C(=O)O)c2n1 [compound 342] | < 0.05 | 0.0474
Cc1cc(-c2cc(Cl)ccc2OCCn2c(C)nc3cc(C(F)(F)F)c(-c4cnccc4F)c(C#N)c3c2=O)c2scc(C(=O)O)c2n1 [compound 343] | < 0.05 | 0.0418
Cc1cc(-c2cc(Cl)ccc2OCCn2c(C)nc3cc(C(F)(F)F)c(-c4ccncc4F)c(C#N)c3c2=O)c2scc(C(=O)O)c2n1 [compound 344] | < 0.05 | 0.0321
Cc1cc(-c2cc(Cl)ccc2OCCn2c(C)nc3cc(C(F)(F)F)c(-c4ccccc4CO)nc3c2=O)c2scc(C(=O)O)c2n1 [compound 346] | < 0.05 | 0.0181
Cc1cc(-c2cc(Cl)ccc2OCCn2c(C)nc3cc(C(F)(F)F)c(-c4cnsc4)c(C#N)c3c2=O)c2scc(C(=O)O)c2n1 [compound 347] | < 0.05 | 0.0321
Cc1cc(-c2cc(Cl)ccc2OCCn2c(C)nc3cc(C(F)(F)F)c(-c4ccns4)c(C#N)c3c2=O)c2scc(C(=O)O)c2n1 [compound 348] | < 0.05 | 0.0154
Cc1ccc(-c2c(C(F)(F)F)cc3nc(C)n(CCOc4ccc(Cl)cc4-c4cc(C)nc5c(C(=O)O)csc45)c(=O)c3c2C#N)c(C)n1 [compound 349] | < 0.05 | 0.00584
Cc1cc(C)c(-c2c(C(F)(F)F)cc3nc(C)n(CCOc4ccc(Cl)cc4-c4cc(C)nc5c(C(=O)O)csc45)c(=O)c3c2C#N)cn1 [compound 350] | < 0.05 | 0.0142
Cc1nc2cc(C(F)(F)F)cc(C#N)c2c(=O)n1CCOc1ccc(Cl)cc1-c1ccnc2c(C(C)(C)O)csc12 [compound 352] | > 1 | 1.27
Cn1cc(CCOc2ccc(Cl)cc2-c2ccnc3c(C(=O)O)csc23)c(=O)c2c(C#N)cc(C(F)(F)F)cc21 [compound 353] | 0.05 to 1 | 0.101
CN1c2cc(C(F)(F)F)cc(C#N)c2C(=O)N(CCOc2ccc(Cl)cc2-c2ccnc3c(C(=O)O)csc23)C1(C)C [compound 355] | 0.05 to 1 | 0.146
Cc1nc2cc(C(F)(F)F)cc(C#N)c2c(=O)n1CCOc1[nH]c(=O)c(Cl)cc1-c1ccnc2c(C(=O)O)csc12 [compound 356] | > 1 | 1.22
Cc1nc2c(C(F)(F)F)ccc(C#N)c2c(=O)n1CCOc1ccc(Cl)cc1-c1ccnc2c(C(=O)O)csc12 [compound 358] | 0.05 to 1 | 0.0863
Cc1nc2c(OC(F)F)ccc(C#N)c2c(=O)n1CCOc1ccc(Cl)cc1-c1ccnc2c(C(=O)O)csc12 [compound 359] | < 0.05 | 0.0489
Cc1nc2c(C(F)F)ccc(C#N)c2c(=O)n1CCOc1ccc(Cl)cc1-c1ccnc2c(C(=O)O)csc12 [compound 360] | < 0.05 | 0.0426
Cc1c(CCOc2ccc(Cl)cc2-c2ccnc3c(C(=O)O)csc23)c(=O)c2c(C#N)c(Cl)c(C(F)(F)F)cc2n1C [compound 361] | 0.05 to 1 | 0.0684
Cc1c(CCOc2ccc(Cl)cc2-c2ccnc3c(C(=O)O)csc23)c(=O)c2c(C#N)cc(C(F)(F)F)cc2n1CCF [compound 362] | 0.05 to 1 | 0.0722
Cc1cc(-c2cc(Cl)ccc2OCCn2c(C)nc3cc(C(F)(F)F)c(C)c(C#N)c3c2=O)c2scc(C(=O)O)c2n1 [compound 363] | < 0.05 | 0.0228
Cc1cc(-c2cc(Cl)ccc2OCCn2c(C)nc3c(C)c(C(F)(F)F)cc(C#N)c3c2=O)c2scc(C(=O)O)c2n1 [compound 364] | 0.05 to 1 | 0.107
